Read-outs that look alike come from different tables or passages of the source. One block for each molecule: values may come before it. Where a SMILES comes first, the peptide text is derived from it. Bridges are numbered along the chain shown (N, C = ends). Triazole bridges read from a SMILES are 1,4-linked. Where no end group is shown, it is not given here. [ ]: non-standard residue; d: D form. The star is where a group is joined. Benzoyl(4-guanidino) = N=C(N)Nc1ccc(C(=O)*)cc1; Gua = N-terminal guanidino group, N=C(N)*; Pro(4S-NH2) = N[C@@H]1CN[C@H](C(=O)O)C1; Orn(N3) = [N-]=[N+]=NCCC[C@H](N)C(=O)O; Aha = [N-]=[N+]=NCC[C@H](N)C(=O)O; Cav = NC(N)=NOCC[C@H](N)C(=O)O; Hpra = C#CCC[C@H](N)C(=O)O; hCys = N[C@@H](CCS)C(=O)O; Orn = NCCC[C@H](N)C(=O)O; Pra = C#CC[C@H](N)C(=O)O
Tests used:
[1] = assay type: in vitro ADME; conditions: plasma
Protocol: Plasmas from 3 species (including commercially available human healthy donors) were adjusted to pH 7.4 if necessary. Incubations were performed at a concentration of 1 µM of the compound at 37 °C (in the presence of a final concentration of DMSO of 2.5% v/v. The incubations were stopped at 0, 15, 30, 60 and 120 min by methanol. Each time point was run in sextuplets. The sampling plates were then centrifuged (2500 rpm, 45 min, 4 °C) and the supernatants pooled. Samples were analyzed for parent compound by LC-MS/MS. The percentage of parent compound remaining at each time point relative to the 0 min sample is then calculated from LC-MS/MS peak area ratios. Then, the stability in plasma was evaluated by incubating human, rat or mouse plasma with the compound(s) as follows: the product (0.1 µM in TRIS buffer pH 7.4 0.1% BSA) was incubated with the plasma at 37 °C. The disappearance of the product was measured at 15, 45, 120, 240 and 300 min by mass spectrometry. Incubations were carried out in a robot Star (Hamilton France, Villebon-sur-Yvette, France). At each sampling time, 50 µL of the reaction medium was removed and diluted with 100 µL of acetonitrile. After centrifugation (20 min at + 4 °C, 4000 rpm), 75 µL of the supernatants was transferred into a 384 well injection plate. Ten microliters were injected onto UPLC coupled with a XEVO TQS mass spectrometer system (Waters, Milford, MA, USA). The unchanged product is quantified using a reference sample (0.1 µM) prepared during the incubation process. A second reference sample at 0.01 µM is prepared in the same conditions to verify the linearity of the detection method. The peak height (or area) is measured to calculate the half-life of the compound.

human MCH-R1 [2] = target: T1, human MCH-R1 (Homo sapiens, UniProt Q99705); assay: MCH-induced cytosolic Ca2+ ion mobilization, antagonist effect; assay type: cell-based; conditions: antagonism of MCH-induced cytosolic Ca2+ mobilization; read-out: Ki (functionality, antagonism at MCH-R1)
T1 construct: expressed in transfected cells
T1 sequence (Q99705 whole entry): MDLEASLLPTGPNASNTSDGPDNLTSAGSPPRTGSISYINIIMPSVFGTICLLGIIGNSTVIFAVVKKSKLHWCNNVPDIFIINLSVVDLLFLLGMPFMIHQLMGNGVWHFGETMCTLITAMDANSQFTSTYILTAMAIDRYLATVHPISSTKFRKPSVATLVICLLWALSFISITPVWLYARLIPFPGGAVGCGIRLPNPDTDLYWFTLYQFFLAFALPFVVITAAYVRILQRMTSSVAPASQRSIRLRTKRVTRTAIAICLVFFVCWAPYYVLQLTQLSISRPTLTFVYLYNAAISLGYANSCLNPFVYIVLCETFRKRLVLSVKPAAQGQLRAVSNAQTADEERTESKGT
Protocol: The functional assay was run onto cells expressing the hMCH-R1 receptor, as described in Wang et al.. In brief, the cells are suspended in DMEM buffer (Invitrogen), then distributed in microplates at a density of 4.104 cells/well. The fluorescent probe (Fluo4 Direct, Invitrogen) mixed with probenecid in Hanks’ Balanced Salt solution (HBSS) (Invitrogen) complemented with 20 mM HEPES (Invitrogen) (pH 7.4) is then added into each well and equilibrated with the cells for 60 min at 37 °C, then 15 min at 22 °C. Then, the assay plates are positioned in a microplate reader (CellLux, PerkinElmer) which is used for the addition of the test compound, reference agonist or HBSS buffer (basal control), and the measurements of changes in fluorescence intensity, which varies proportionally to the free cytosolic Ca^2+ ion concentration. For stimulated control measurements, MCH at 300 nM is added in separate assay wells. The results are expressed as a percentage of the control response to 300 nM MCH. The standard reference agonist is MCH, which is tested in each experiment at several concentrations to generate a concentration-response curve from which its EC50 value is calculated. For the antagonist effect, the results are expressed as a percentage inhibition of the control response to 30 nM MCH, which was added to all tested wells and controls 5 min after the candidate products.

human MCH-R1 [3] = target: T1, human MCH-R1; assay: Binding displacement of [125I]-[Phe13,Tyr19]-MCH at membranes expressing human MCH-R1; conditions: Table 1, S-S bridge pseudopeptides; 2 × 2 independent duplicates; read-out: Km
Protocol: Stable cell lines were obligatory for all receptor programs. We cloned the human receptor and established the cell line as previously described. In brief, HEK293 (HEK) cells were grown in Dulbecco’s Modified Eagle medium (DMEM) supplemented with 10% fetal calf serum, 2 mM glutamine, 100 IU/mL penicillin and […] streptomycin. They were seeded at 5 × 10^6 cells in T75 cm^2 culture flasks. One day later, they were transfected with […] of the pcDNA3.1 (Invitrogen, Groningen, The Netherlands) containing the human MCH-R1 using lipofectamine (Life Technologies, Cergy Pontoise, France), as previously described. One day later, cells were trypsinized, resuspended in a complete DMEM medium containing […] of geneticin and seeded at different dilutions in 96-well plates which were kept for 2 to 3 weeks in a humidified CO2 incubator. At the end of the selection period, isolated clones were picked up, amplified, and further characterized by cyclic AMP experiments. For each cell line, one positive clone was subcloned before being used for all of the cyclic AMP, [^35S]-GTPγS and receptor binding experiments necessary to characterize them. The stable HEK293 cell line expressing the human MCH-R1 was HEK-hMCH-R1.
Membrane preparations were classically made as previously described. In brief, the HEK-hMCH-R cell line was grown to confluency, harvested in PBS buffer containing 2 mM EDTA and centrifuged at 10,000× g for 5 min (4°C). The resulting pellet was suspended in 20 mM Hepes buffer (pH 7.5), containing 5 mM EGTA and homogenized using a Kinematica polytron. The homogenate was then centrifuged (95,000× g, 30 min, 4 °C) and the resulting pellet was suspended in 50 mM HEPES buffer (pH 7.5), containing 10 mM MgCl2 and 2 mM EGTA. Aliquots of membrane preparations were stored at −80 °C until use. Binding has been described in numerous publications and the test was based on Mac Donald et al.’s description. […] Nonspecific binding is determined in the presence of 0.1 μM MCH. […] The filters are dried and then counted for radioactivity in a scintillation counter (Topcount, Packard) using a scintillation cocktail (Microscint 0, Packard). The results are expressed as percentage inhibition of the control radioligand specific binding. The standard reference compound is MCH, which was tested in each experiment at 8 concentrations to obtain a competition curve from which its IC50 is calculated. The high level of assay robustness and reproducibility of each control monitored over several decades (internal data base, Eurofins) and included in every assay ensure results’ reliability even when performed only twice. […]

human plasma = conditions: 37 °C, up to 300 min

Molecule: CSCC[C@@H]1NC(=O)[C@@H](NC(=O)c2ccc(NC(=N)N)cc2)CCC(=O)NCCC[C@@H](C(=O)N[C@@H](Cc2c[nH]c3ccccc23)C(=O)O)NC(=O)[C@@H]2CCCN2C(=O)[C@H](CCCNC(=N)N)NC(=O)[C@H](C(C)C)NC(=O)[C@H](CCCNC(=N)N)NC(=O)[C@H](CC(C)C)NC1=O [GPS12744] ({Benzoyl(4-guanidino)}-EMLRVRP[Orn]W-OH; lactam 1-8)
half-life ([1]; human): ≥ 5 h
half-life ([1]; mouse): 0.433 ± 0.05 h
half-life ([1]; rat): 2.38 ± 0.2 h

Molecule: CCSCC[C@@H]1NC(=O)[C@@H](NC(=O)c2ccc(NC(=N)N)cc2)CCC(=O)NCCC[C@@H](C(=O)N[C@@H](Cc2c[nH]c3ccccc23)C(=O)O)NC(=O)[C@@H]2CCCN2C(=O)[C@H](CCCNC(=N)N)NC(=O)[C@H](C(C)C)NC(=O)[C@H](CCCNC(=N)N)NC(=O)[C@H](CC(C)C)NC1=O [GPS13663] ({Benzoyl(4-guanidino)}-E[hCys](Et)LRVRP[Orn]W-OH; lactam 1-8)
half-life ([1]; human): ≥ 5 h
half-life ([1]; mouse): 0.317 ± 0.0167 h
half-life ([1]; rat): 1.57 ± 0.05 h

Molecule: CSCC[C@H](NC(=O)[C@H](CCC(=O)O)NC(=O)c1ccc(NC(=N)N)cc1)C(=O)N[C@@H](CC(C)C)C(=O)N[C@@H](CCCNC(=N)N)C(=O)N[C@H](C(=O)N[C@@H](CCCNC(=N)N)C(=O)N1CCC[C@H]1C(=O)N[C@@H](CCCN)C(=O)N[C@@H](Cc1c[nH]c2ccccc12)C(=O)O)C(C)C [GPS13669] ({Benzoyl(4-guanidino)}-EMLRVRP[Orn]W-OH)
Ki (human MCH-R1 [2]): 300 nM

Molecule: CCSCC[C@@H]1NC(=O)[C@@H](NC(=O)c2ccc(NC(=N)N)cc2)Cc2cn(nn2)CC[C@@H](C(=O)N[C@@H](Cc2c[nH]c3ccccc23)C(=O)O)NC(=O)[C@@H]2CCCN2C(=O)[C@H](CCCNC(=N)N)NC(=O)[C@H](C(C)C)NC(=O)[C@H](CCCNC(=N)N)NC(=O)[C@H](CC(C)C)NC1=O [GPS13671] ({Benzoyl(4-guanidino)}-[Pra][hCys](Et)LRVRP[Aha]W-OH; triazole 1-8)
Ki (human MCH-R1 [2]): 8 nM

Molecule: CSCC[C@@H]1NC(=O)[C@@H](NC(=O)c2ccc(NC(=N)N)cc2)CCC(=O)NCCC[C@@H](C(=O)N[C@@H](Cc2c[nH]c3ccccc23)C(=O)O)NC(=O)[C@@H]2CCCN2C(=O)[C@H](CCON=C(N)N)NC(=O)[C@H](C(C)C)NC(=O)[C@H](CCCNC(=N)N)NC(=O)[C@H](CC(C)C)NC1=O [GPS13683] ({Benzoyl(4-guanidino)}-EMLRV[Cav]P[Orn]W-OH; lactam 1-8)
Ki (human MCH-R1 [2]): 0.15 nM

Molecule: GPS11373: S-S bridge: Gua-Cys-Met-Leu-Arg-Val-Arg-Pro-Cys-Trp (Gua-CMLRVRPCW; disulfide 1-8 (inferred))
binding affinity constant (human MCH-R1 [3]): 100 nM

Molecule: Gua-Glu-Ethionine-Leu-Arg-Val-Arg-Pro-Orn-Trp
not cleaved (human plasma): not metabolized at all, 100% of the initial dose found at 300 (5 h)

Molecule: Gua-Glu-Met-Leu-Arg-Val-Arg-4-NH2-Pro-Orn-Trp
not cleaved (human plasma): not metabolized at all, 100% of the initial dose found at 300 (5 h)

Molecule: Gua-Glu-Met-Leu-Arg-Val-Arg-Pro-Orn-Trp
not cleaved (human plasma): not metabolized at all, 100% of the initial dose found at 300 (5 h)

Other lines, results leading:

half-life ([1]; human): ≥ 5 h
half-life ([1]; mouse): 0.433 ± 0.0167 h
half-life ([1]; rat): 2.25 ± 0.15 h
Molecule: CSCC[C@@H]1NC(=O)[C@@H](NC(=O)c2ccc(NC(=N)N)cc2)CCC(=O)NCCC[C@@H](C(=O)N[C@@H](Cc2c[nH]c3ccccc23)C(=O)O)NC(=O)[C@@H]2C[C@H](N)CN2C(=O)[C@H](CCCNC(=N)N)NC(=O)[C@H](C(C)C)NC(=O)[C@H](CCCNC(=N)N)NC(=O)[C@H](CC(C)C)NC1=O [GPS13684] ({Benzoyl(4-guanidino)}-EMLRVR[Pro(4S-NH2)][Orn]W-OH; lactam 1-8)

Ki (human MCH-R1 [2]): 0.13 nM
Molecule: CSCC[C@@H]1NC(=O)[C@@H](NC(=O)c2ccc(NC(=N)N)cc2)CCC(=O)NCCC[C@@H](C(=O)N[C@@H](Cc2c[nH]c3ccccc23)C(=O)O)NC(=O)[C@@H]2CCCN2C(=O)[C@H](CCCNC(=N)N)NC(=O)[C@H](Cc2ccc(O)cc2)NC(=O)[C@H](C(C)C)NC(=O)[C@H](CCCNC(=N)N)NC(=O)[C@H](CC(C)C)NC1=O [GPS13695] ({Benzoyl(4-guanidino)}-EMLRVYRP[Orn]W-OH; lactam 1-9)

Ki (human MCH-R1 [2]): 0.022 nM
Molecule: CSCC[C@@H]1NC(=O)[C@@H](NC(=O)c2ccc(NC(=N)N)cc2)CCn2cc(nn2)CC[C@@H](C(=O)N[C@@H](Cc2c[nH]c3ccccc23)C(=O)O)NC(=O)[C@@H]2CCCN2C(=O)[C@H](CCCNC(=N)N)NC(=O)[C@H](C(C)C)NC(=O)[C@H](CCCNC(=N)N)NC(=O)[C@H](CC(C)C)NC1=O [GPS14517] ({Benzoyl(4-guanidino)}-[Aha]MLRVRP[Hpra]W-OH; triazole 1-8)

Ki (human MCH-R1 [2]): 0.027 nM
Molecule: CSCC[C@@H]1NC(=O)[C@@H](NC(=O)c2ccc(NC(=N)N)cc2)Cc2cn(nn2)CCC[C@@H](C(=O)N[C@@H](Cc2c[nH]c3ccccc23)C(=O)O)NC(=O)[C@@H]2CCCN2C(=O)[C@H](CCCNC(=N)N)NC(=O)[C@H](C(C)C)NC(=O)[C@H](CCCNC(=N)N)NC(=O)[C@H](CC(C)C)NC1=O [GPS14518] ({Benzoyl(4-guanidino)}-[Pra]MLRVRP[Orn(N3)]W-OH; triazole 1-8)

Ki (human MCH-R1 [2]): 0.43 nM
Molecule: CSCC[C@@H]1NC(=O)[C@@H](NC(=O)c2ccc(NC(=N)N)cc2)CCCn2cc(nn2)C[C@@H](C(=O)N[C@@H](Cc2c[nH]c3ccccc23)C(=O)O)NC(=O)[C@@H]2CCCN2C(=O)[C@H](CCCNC(=N)N)NC(=O)[C@H](C(C)C)NC(=O)[C@H](CCCNC(=N)N)NC(=O)[C@H](CC(C)C)NC1=O [GPS14519] ({Benzoyl(4-guanidino)}-[Orn(N3)]MLRVRP[Pra]W-OH; triazole 1-8)

From paper PMC7957705 (Molecules, 2021)
